In patent US20100069480A1, “METHODS AND COMPOSITIONS FOR THE TREATMENT OF CANCER” (Bionovo, Inc. A Delaware Corporation, priority 2008, published 2010):

Legend:
Assay type in all cases: cell-based, human
[1] = tested on: MDA MB 231 and SKBr3 breast cancer cells; experiment: DNA damage, comet assay
Method: (§1) The following parameters were examined: • 1. Induction of the loss of the mitochondrial transmembrane potential (MTP). […] Induction of reactive oxygen species (ROS). Induced fluorescence from the cell permeable indicators of ROS such as dihydroethidium (specific for superoxide) (FIG. 2), CM-H2DCFDA (most types of ROS) (FIG. 1) and MitoSOX (mitochondrially derived superoxide) (FIG. 3) was studied using a fluorescent plate reader and FACS. • 3. Compounds were also tested for the potential cellular sources of ROS induced using either specific indicators for ROS of mitochondrial origin, and/or specific inhibitors of ROS production by known sources such as mitochondria, ubiquinone oxidoreductase NQO (mitochondrial complex I) and NADPH oxidases. • 4. Compounds were tested for induction of DNA damage using test known as comet assay that allows detection of DNA damage in individual cells. (FIG. 4) • 5. The induction of death in cells treated with the compounds was examined using propidium iodide test for cell permeability followed by analysis on FACS. • 6. The mode of cell death (i.e., apoptosis versus necrosis) was studied using several criteria: conversion of cells to positivity for binding Annexin V; DNA fragmentation (characteristic of apoptotic death) and decrease in cellular ATP levels (commonly observed during necrotic death) (FIG. 5). […]

[2] = tested on: MDA MB 231 and SKBr3 breast cancer cells; experiment: mitochondrially derived superoxide, MitoSOX
Method: (§2) The following parameters were examined: • 1. Induction of the loss of the mitochondrial transmembrane potential (MTP). […] Induction of reactive oxygen species (ROS). Induced fluorescence from the cell permeable indicators of ROS such as dihydroethidium (specific for superoxide) (FIG. 2), CM-H2DCFDA (most types of ROS) (FIG. 1) and MitoSOX (mitochondrially derived superoxide) (FIG. 3) was studied using a fluorescent plate reader and FACS. • 3. Compounds were also tested for the potential cellular sources of ROS induced using either specific indicators for ROS of mitochondrial origin, and/or specific inhibitors of ROS production by known sources such as mitochondria, ubiquinone oxidoreductase NQO (mitochondrial complex I) and NADPH oxidases. • 4. Compounds were tested for induction of DNA damage using test known as comet assay that allows detection of DNA damage in individual cells. (FIG. 4) • 5. The induction of death in cells treated with the compounds was examined using propidium iodide test for cell permeability followed by analysis on FACS. • 6. […] Induced fluorescence from the cell permeable indicators of ROS such as dihydroethidium (specific for superoxide) (FIG. 2), CM-H2DCFDA (most types of ROS) (FIG. 1) and MitoSOX (mitochondrially derived superoxide) (FIG. 3) was studied using a fluorescent plate reader and FACS. • 3. […]

[3] = tested on: MDA MB 231 and SKBr3 breast cancer cells; experiment: induction of ROS, CM-H2DCFDA fluorescence; conditions: for induction of cellular ROS: CM-H2DCFDA probe
Method: as §1
DCFDA is nonfluorescent in reduced form and is readily membrane-permeant. Cellular esterases cleave its acetate groups. The thiol-reactive chloromethyl group then binds to cellular thiols, trapping the dye inside the cell, where oxidation converts it to the fluorescent form. CM-H2DCFDA is oxidized by cellular hydrogen peroxide, hydroxyl radicals, and various free radical products lying downstream from hydrogen peroxide. It is relatively insensitive to oxidation by superoxide. However, because hydrogen peroxide is produced by dismutation of superoxide, CM-H2DCFDA serves as an indirect indicator of superoxide production.
FIG. 1. […] The indicated compounds were added to cells at 20 μg/ml growth medium, followed by addition of 10 μM CM-H2 DCFDA. Inhibitor of mitochondrial respiration, NaN3, was added at 10 mM. After 30 minute incubation, cells were washed in PBS and analyzed on FACScan for fluorescence.

[4] = tested on: MDA MB 231 and SKBr3 breast cancer cells; experiment: mode of cell death: Annexin V binding, DNA fragmentation
Method: The following parameters were examined: • 1. Induction of the loss of the mitochondrial transmembrane potential (MTP). […] Induction of reactive oxygen species (ROS). Induced fluorescence from the cell permeable indicators of ROS such as dihydroethidium (specific for superoxide) (FIG. 2), CM-H2DCFDA (most types of ROS) (FIG. 1) and MitoSOX (mitochondrially derived superoxide) (FIG. 3) was studied using a fluorescent plate reader and FACS. • 3. Compounds were also tested for the potential cellular sources of ROS induced using either specific indicators for ROS of mitochondrial origin, and/or specific inhibitors of ROS production by known sources such as mitochondria, ubiquinone oxidoreductase NQO (mitochondrial complex I) and NADPH oxidases. • 4. Compounds were tested for induction of DNA damage using test known as comet assay that allows detection of DNA damage in individual cells. (FIG. 4) • 5. The induction of death in cells treated with the compounds was examined using propidium iodide test for cell permeability followed by analysis on FACS. • 6. The mode of cell death (i.e., apoptosis versus necrosis) was studied using several criteria: conversion of cells to positivity for binding Annexin V; DNA fragmentation (characteristic of apoptotic death) and decrease in cellular ATP levels (commonly observed during necrotic death) (FIG. 5). 1. Induction of the loss of the mitochondrial transmembrane potential (MTP). […] Induction of reactive oxygen species (ROS). Induced fluorescence from the cell permeable indicators of ROS such as dihydroethidium (specific for superoxide) (FIG. 2), CM-H2DCFDA (most types of ROS) (FIG. 1) and MitoSOX (mitochondrially derived superoxide) (FIG. 3) was studied using a fluorescent plate reader and FACS. • 3. Compounds were also tested for the potential cellular sources of ROS induced using either specific indicators for ROS of mitochondrial origin, and/or specific inhibitors of ROS production by known sources such as mitochondria, ubiquinone oxidoreductase NQO (mitochondrial complex I) and NADPH oxidases. • 4. […]

[5] = tested on: MDA MB 231 and SKBr3 breast cancer cells; experiment: cellular ATP content, ATP bioluminescence assay
Method: as §2

[6] = Table 11, confirmed in two breast cancer cell lines

Compound	induction of DNA damage [1]	conversion of MitoSOX, detector of mitochondrially derived superoxide [2]	Induction of ROS (fold) ([3]; Table 11, confirmed in two breast cancer cell lines, listed as cmpd 9)	Induction of ROS (fold) ([3]; Table 12)	cell death and its mode [4]	change in cellular ATP levels [5]	induction of cellular ROS [3]	Induction of ROS (fold) [3, 6] [fold]
O=c1cc(-c2ccc(O)cc2)oc2cc(O)cc(O)c12 [Apigenin]	do not induce DNA damage	converted to its fluorescent form	1.5	1.5	induce significant cell death characterized as apoptotic	slight but consistent increase in ATP levels		
O=C1CC(c2ccc(O)cc2)Oc2cc(O)c(O)c(O)c21 (centres unmarked) [Carthamidin]	induce DNA damage						induce ROS, but of extra-mitochondrial origin	
O=C1CC(c2ccc(O)cc2)Oc2c(O)c(O)cc(O)c21 (centres unmarked) [Isocarthamidin]	induce DNA damage						induce ROS, but of extra-mitochondrial origin	
O=c1cc(-c2ccc(O)cc2)oc2c(O)c(O)cc(O)c12 [Isoscutellarein]	induce DNA damage			1.5	cell death that has hallmarks of programmed necrosis		induce ROS, but of extra-mitochondrial origin	1.5
O=c1cc(-c2ccc(O)cc2)oc2cc(O)c(O)c(O)c12 [Scutellarein]	induce DNA damage				cell death that has hallmarks of programmed necrosis		induce ROS, but of extra-mitochondrial origin	2.4
O=c1cc(-c2ccc(O)cc2)oc2cc(O)cc(O)c12 [cmpd 4]								0.6
